Test results reported in patent US20250213525A1, “Atopic Dermatitis Improving Agent, Interleukin Production Inhibitor, and Inhibitor of Expression of Interleukin Gene” (PIAS CORPORATION, priority 2022, published 2025).

What was measured:
Format in all cases: cell-based
[1] = tested on: interleukin-1β (IL-1β) gene; experiment: Inhibition of IL-1β gene expression in PMA-stimulated NHEK (real time PCR); settings: Normal Human Epidermal Keratinocytes, PMA 25 ng/mL, 3 hours, compound 10 to 20 μM, GAPDH internal standard; FIG. 3 and FIG. 6
[2] = tested on: interleukin-1α (IL-1α) gene; experiment: Inhibition of IL-1α gene expression in PMA-stimulated NHEK (real time PCR); settings: Normal Human Epidermal Keratinocytes, PMA 25 ng/mL, 3 hours, compound 10 to 20 μM, GAPDH internal standard; FIG. 2 and FIG. 5
[3] = tested on: interleukin-33 (IL-33) gene; experiment: Inhibition of IL-33 gene expression in PMA-stimulated NHEK (real time PCR); settings: Normal Human Epidermal Keratinocytes, PMA 25 ng/mL, 3 hours, compound 10 to 20 μM, GAPDH internal standard; FIG. 1 and FIG. 4
Experimental: The following provides the details of in vitro tests. 6×10^4 cells of Normal Human Epidermal Keratinocytes (NHEK manufactured by KURABO INDUSTRIES LTD.) were seeded on a 12 well plate and cultured at 37° C. under 5% CO2 conditions for 72 hours. The incubation medium was removed and then replaced by a culture medium including the following inflammatory stimulating substance (final concentration: 25 ng/mL) and the individual compound used in each of the above Test Examples, followed by further culturing at 37° C. under 5% CO2 conditions for 3 hours. Thereafter, total RNA was purified from cells according to the instruction manual of product name “PureLink RNA Mini kit” (INVITROGEN), and RNA purified using the test kit “ReverTra Ace™ qPCR RT Master Mix (manufactured by TOYOBO CO., LTD.)” was reverse-transcribed to cDNA. For the cDNA, IL-33 mRNA expression level was quantitatively evaluated by a real time PCR method. Glyceraldehyde-3-phosphate dehydrogenase (GAPDH) was used as an internal standard calibration. The compounds used in Test Examples were dissolved in dimethyl sulfoxide (DMSO) to prepare the individual stocks, and then respectively dissolved in the culture media to have a concentration of 10 to 20 μM. At this time, dilution was performed to allow DMSO to have a concentration (1% or less) at which no cytotoxicity is caused. […]

CCCCCCCCCCCCCCCC(=O)OC[C@H](O)[C@H]1OC(=O)C(OCC(O)CO)=C1O (stereo partly drawn) [2-O-glyceryl-6-O-hexadecanoyl ascorbic acid]
inhibited: expression of interleukin-1β (IL-1β) gene [1] | expression of interleukin-1α (IL-1α) gene [2] | IL-33 mRNA expression level [3]
